Legend:
[1] = target: T1, hSGLT3 (Homo sapiens, UniProt Q9NY91); assay: inhibition of glucose-induced current, two-electrode voltage clamp in Xenopus oocytes; format: cell-based; conditions: pH 5, glucose present; phlorizin also blocks about two-thirds of the H+-induced current
T1 construct: gene SLC5A4; full-length cDNA, cRNA expressed in Xenopus laevis oocytes (untagged in the oocyte tests)
T1 sequence (Q9NY91 1-659): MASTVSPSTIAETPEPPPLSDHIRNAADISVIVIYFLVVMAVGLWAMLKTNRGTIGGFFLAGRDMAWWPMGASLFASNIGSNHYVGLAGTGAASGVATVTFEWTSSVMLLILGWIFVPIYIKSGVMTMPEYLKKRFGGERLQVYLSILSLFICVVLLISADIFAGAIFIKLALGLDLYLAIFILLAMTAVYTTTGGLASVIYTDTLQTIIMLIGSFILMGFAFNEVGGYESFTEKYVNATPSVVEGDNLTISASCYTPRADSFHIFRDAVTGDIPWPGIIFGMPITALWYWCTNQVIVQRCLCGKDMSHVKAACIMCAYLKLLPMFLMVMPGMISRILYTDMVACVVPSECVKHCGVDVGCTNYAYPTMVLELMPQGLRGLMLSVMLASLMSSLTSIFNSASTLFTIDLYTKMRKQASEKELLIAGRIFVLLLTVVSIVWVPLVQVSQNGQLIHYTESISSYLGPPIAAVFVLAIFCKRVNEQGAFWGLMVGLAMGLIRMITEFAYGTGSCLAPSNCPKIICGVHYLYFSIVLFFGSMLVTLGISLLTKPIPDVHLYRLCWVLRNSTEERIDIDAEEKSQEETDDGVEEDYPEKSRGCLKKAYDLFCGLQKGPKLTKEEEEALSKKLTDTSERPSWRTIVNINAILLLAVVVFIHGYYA

[2] = target: T2, hSGLT3 (Homo sapiens, UniProt Q9NY91, E457Q); assay: inhibition of αM-glc-induced depolarization, two-electrode recording in Xenopus oocytes; format: cell-based; conditions: read-out: E457Q-hSGLT3 / K0.5
T2 construct: gene SLC5A4; full-length cDNA, cRNA expressed in Xenopus laevis oocytes (untagged in the oocyte tests)
T2 sequence (Q9NY91 1-659 E457Q): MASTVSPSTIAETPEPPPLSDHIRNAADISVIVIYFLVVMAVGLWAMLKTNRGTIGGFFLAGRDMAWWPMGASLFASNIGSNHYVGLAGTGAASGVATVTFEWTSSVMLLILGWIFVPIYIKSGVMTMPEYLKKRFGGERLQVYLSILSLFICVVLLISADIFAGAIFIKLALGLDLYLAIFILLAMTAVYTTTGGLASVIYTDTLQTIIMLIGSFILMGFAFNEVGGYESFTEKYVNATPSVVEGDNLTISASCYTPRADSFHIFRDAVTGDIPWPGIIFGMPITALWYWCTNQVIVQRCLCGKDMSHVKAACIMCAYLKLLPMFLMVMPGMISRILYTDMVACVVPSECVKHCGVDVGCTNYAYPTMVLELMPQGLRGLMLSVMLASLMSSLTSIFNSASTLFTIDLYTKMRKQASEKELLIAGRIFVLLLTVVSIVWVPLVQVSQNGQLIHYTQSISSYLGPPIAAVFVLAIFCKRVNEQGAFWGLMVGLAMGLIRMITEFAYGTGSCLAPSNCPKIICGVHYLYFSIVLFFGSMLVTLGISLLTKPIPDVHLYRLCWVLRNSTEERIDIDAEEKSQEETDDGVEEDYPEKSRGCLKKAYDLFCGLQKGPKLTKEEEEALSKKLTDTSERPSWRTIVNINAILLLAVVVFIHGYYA
From the text: inhibition of αM-glc-induced depolarization, two-electrode recording in Xenopus oocytes on hSGLT3

[3] = target: T1, hSGLT3; assay: sugar-induced current, two-electrode voltage clamp in Xenopus oocytes; format: cell-based; conditions: 150 mM αM-glc, Na+ buffer; bound but not transported
[4] = substrate: CO[C@H]1O[C@H](CO)[C@@H](O)[C@H](O)[C@H]1O; assay: sugar-induced depolarization, two-electrode recording in Xenopus oocytes; format: cell-based, Homo sapiens; conditions: 100 mM Na+, pH 7.4, room temperature, n = 3
From the text: sugar-induced depolarization, two-electrode recording in Xenopus oocytes on hSGLT3

`O=C(CCc1ccc(O)cc1)c1c(O)cc(O)cc1O[C@@H]1O[C@H](CO)[C@@H](O)[C@H](O)[C@H]1O` [phlorizin] was tested, and the “% inhibition at 100 μM” value [1] was 2/3 and the Ki [2] was 1.6 ± 0.09 µM.

For `CO[C@H]1O[C@H](CO)[C@@H](O)[C@H](O)[C@H]1O` [αM-glc], the “sugar-induced current, two-electrode voltage clamp in Xenopus oocytes” value [3] was “sugar-induced current (difference between black and open circles in 3D and 3G)”.

B1: hSGLT3 (Homo sapiens; E457Q) (protein)
chain: MASTVSPSTIAETPEPPPLSDHIRNAADISVIVIYFLVVMAVGLWAMLKTNRGTIGGFFLAGRDMAWWPMGASLFASNIGSNHYVGLAGTGAASGVATVTFEWTSSVMLLILGWIFVPIYIKSGVMTMPEYLKKRFGGERLQVYLSILSLFICVVLLISADIFAGAIFIKLALGLDLYLAIFILLAMTAVYTTTGGLASVIYTDTLQTIIMLIGSFILMGFAFNEVGGYESFTEKYVNATPSVVEGDNLTISASCYTPRADSFHIFRDAVTGDIPWPGIIFGMPITALWYWCTNQVIVQRCLCGKDMSHVKAACIMCAYLKLLPMFLMVMPGMISRILYTDMVACVVPSECVKHCGVDVGCTNYAYPTMVLELMPQGLRGLMLSVMLASLMSSLTSIFNSASTLFTIDLYTKMRKQASEKELLIAGRIFVLLLTVVSIVWVPLVQVSQNGQLIHYTQSISSYLGPPIAAVFVLAIFCKRVNEQGAFWGLMVGLAMGLIRMITEFAYGTGSCLAPSNCPKIICGVHYLYFSIVLFFGSMLVTLGISLLTKPIPDVHLYRLCWVLRNSTEERIDIDAEEKSQEETDDGVEEDYPEKSRGCLKKAYDLFCGLQKGPKLTKEEEEALSKKLTDTSERPSWRTIVNINAILLLAVVVFIHGYYA
notes: full-length cDNA, cRNA expressed in Xenopus laevis oocytes (untagged in the oocyte tests)
In the case of B1, the K0.5 [4] is reported as 0.5 ± 0.03 mM.

From paper PMC2857651, “A Single Amino Acid Change Converts the Sugar Sensor SGLT3 into a Sugar Transporter” (PLoS ONE, 2010)
